{"source": "patent US6555545B2", "about": "“Adenosine A2A receptor antagonists for treating and preventing hepatic fibrosis, cirrhosis and fatty liver” (New York University, priority 2000, dated 2003)", "key": {"[1]": {"system": "rat hepatic stellate cells (rHSC)", "assay": "Collagen production by immortalized rat hepatic stellate cells (14C-proline pulse, phosphorimager)", "assay_type": "cell-based", "conditions": "for collagen production, % of control: n=4; for effect of antagonist on CGS-21680-mediated increase in collagen production (in words): rHSC, CSC 10 micro-M, preincubation four hours", "protocol": "To determine whether an increase in adenosine release would promote collagen production, immortalized rat hepatic stellate cells (rHSC, gift from Dr. S. L. Friedman) were incubated with agonists and antagonists at various adenosine receptors, after which collagen production was quantitated. Rat hepatic stellate cells were treated with […] at various concentrations with or without the addition of 10 micro-M adenosine A2A receptor antagonist CSC following pulsing with ^14C-proline. The collagen was extracted by ethanol precipitation and quantified following phosphorimager exposure.\nThe cAMP/protein kinase A pathway is known to mediate adenosine A2A receptor signal transduction. The effect of protein kinase A inhibition was studied on CGS-21680-mediated collagen production in rHSC. Rat HSC were treated with 10 micromolar CGS-21680 for four hours at 37° C., 5% CO2, with or without the addition of 10 micromolar KT-5720, a protein kinase A inhibitor, and collagen production was extracted by ethanol precipitation and quantified following phosphoimager exposure."}, "[2]": {"system": "human hepatic stellate cells (LX-1)", "assay": "Collagen production by immortalized human hepatic stellate cells", "assay_type": "cell-based", "protocol": "Since A2A receptor selectivity of CGS-21680 decreases with increasing concentration, and recruitment of A2B receptor activity is observed with CGS-21680 concentrations above 100 nM, agonistic effects in A2B receptors by high-dose CGS-21680 is likely to be responsible for the decrease in collagen production. This is consistent with Dubey's observations on cardiac fibroblasts that adenosine A2B receptor activation decreases collagen synthesis, Dubey et al., Hypertension 1998; 31(4):943-8. Alternatively, CGS-21680-induced changes in collagen production may be the result of alterations in the expression of collagenase/metalloproteinases (MMP) or their inhibitors, tissue inhibitors of metalloproteinases, TIMP. Adenosine, acting through one of its receptors, most likely the A2B receptor, has been noted to alter metalloproteinase expression (Boyle et al., Arthritis Rheum 1996:39(6):923-30."}, "HepG2 cells": {"system": "HepG2 cells", "assay": "Adenosine release from HepG2 cells, quantitated by HPLC", "conditions": "for effect on adenosine release (in words): pharmacologically relevant concentrations, ethanol up to 80 mg/dl"}}, "note": "“Also recorded” adds a separate entry of the source.", "data": [{"smiles": "CCNC(=O)[C@H]1O[C@@H](n2cnc3c(N)nc(NCCc4ccc(CCC(=O)O)cc4)nc32)[C@H](O)[C@@H]1O", "note": "[CGS-21680]", "values": [{"measurement": "collagen production, % of control", "setting": "[1]; 10 micromolar CGS-21680 alone, four hours", "value": "339±99 % of control"}, {"measurement": "increase in collagen production over control", "setting": "[1]; concentration of 10 mM as printed, n=6, p<0.001", "value": "3223±917", "unit": "%"}, {"measurement": "EC50", "setting": "[1]; cultured rat stellate cell line, dose-dependent, read-out: EC50 for promotion of collagen synthesis and release", "value": "~300", "unit": "nM"}, {"measurement": "maximal promotion of collagen synthesis and release", "setting": "[1]; cultured rat stellate cell line, p<0.004", "value": "≤ 20", "unit": "fold"}, {"measurement": "effect on collagen production (in words)", "setting": "[2]; CGS-21680 concentrations above 100 nM", "value": "collagen production by LX-1 decreases"}, {"measurement": "effect on collagen production (in words)", "setting": "[2]; CGS-21680 concentrations up to 100 nM, dose dependent", "value": "increased collagen production"}]}, {"smiles": "Cn1c(=O)c2c(nc(C=Cc3cccc(Cl)c3)n2C)n(C)c1=O", "note": "[CSC, 8-(3-chlorostyryl)-caffeine]", "values": [{"measurement": "effect of antagonist on CGS-21680-mediated increase in collagen production (in words)", "setting": "[1]", "value": "almost completely blocks; also recorded: almost completely abrogated"}, {"measurement": "effect of antagonist on CGS-21680-induced collagen production (in words)", "setting": "[2]", "value": "blocked by CSC"}]}, {"smiles": "CCCn1c(=O)c2[nH]c(C3CCCC3)nc2n(CCC)c1=O", "note": "[DPCPX, 8-cyclopentyldipropylxanthine]", "values": [{"measurement": "effect of antagonist on CGS-21680-mediated increase in collagen production (in words)", "setting": "[1]", "value": "little effect; also recorded: minimal inhibitory effects"}]}, {"smiles": "CCCCCCOC(=O)[C@]1(O)C[C@@H]2O[C@@]1(C)n1c3ccccc3c3c4c(c5c6ccccc6n2c5c31)C(=O)NC4", "note": "[KT-5720]", "values": [{"measurement": "collagen production, % of control", "setting": "[1]; 10 micromolar CGS-21680 plus 10 micromolar KT-5720, four hours", "value": "181±69 % of control"}, {"measurement": "suppression of the CGS-21680-mediated increase in collagen production", "setting": "[1]; 10 micromolar KT-5720 with 10 micromolar CGS-21680, four hours, n=4, p<0.013", "value": 47, "unit": "%"}]}, {"smiles": "CN(Cc1cnc2nc(N)nc(N)c2n1)c1ccc(C(=O)N[C@@H](CCC(=O)O)C(=O)O)cc1", "note": "[methotrexate]", "values": [{"measurement": "increase in adenosine release vs control", "setting": "HepG2 cells; methotrexate 10 nM, three hours", "value": "six-fold"}, {"measurement": "adenosine release", "setting": "HepG2 cells; methotrexate 10 nM, three hours, n=6, p<0.001 vs control 41±39 nM", "value": "242 ± 82", "unit": "nM"}, {"measurement": "effect on adenosine release (in words)", "setting": "HepG2 cells", "value": "increased adenosine release; also recorded: promotes adenosine release"}]}, {"smiles": "CCCn1c(=O)[nH]c(=O)c2[nH]cnc21", "note": "[enprofylline]", "values": [{"measurement": "effect of antagonist on CGS-21680-mediated increase in collagen production (in words)", "setting": "[1]", "value": "little effect; also recorded: minimal inhibitory effects"}]}, {"smiles": "CCO", "note": "[ethanol]", "values": [{"measurement": "increase in adenosine release from control", "setting": "HepG2 cells; ethanol 40 mg/dl, three hours", "value": "four-fold"}, {"measurement": "adenosine release", "setting": "HepG2 cells; ethanol 40 mg/dl, three hours, n=6, p<0.001 vs control 37±35 nM", "value": "206 ± 79", "unit": "nM"}, {"measurement": "toxicity to HepG2 cells", "setting": "HepG2 cells; ethanol concentrations greater than 80 mg/dl", "value": "toxic to HepG2 cells"}, {"measurement": "effect on adenosine release (in words)", "setting": "HepG2 cells", "value": "increased adenosine release; also recorded: promote adenosine release"}, {"measurement": "effect of ethanol on adenosine release from methotrexate-treated HepG2 cells", "setting": "HepG2 cells; relevant concentrations of methotrexate, data not shown", "value": "further increased adenosine release"}]}]}
